We go through three compounds from US10835533B2, “1 -((3S,4R)-4-(3-fluorophenyl)-1-(2-methoxyethyl)pyrrolidin-3-yl)-3-(4-methyl-3-(2-methylpyrimidin-5-yl)-1-phenyl-1H-pyrazol-5-yl)urea as a TrkA kinase inhibitor” (Array BioPharma Inc., priority 2014, dated 2020).

A short description of the series: Male Sprague Dawley rat pharmacokinetics, oral 10 mg/kg (Example D). Conditions: for Trough concentration / AUC / Cmax: Rat, oral dose 10 mg/kg, plasma; for AUC / Cmax: male, Sprague Dawley; for Plasma:Brain ratio: Rat PO 10 mg/kg, plasma and brain collected 2 hours post dose. It is filed as in vivo. As for the experimental part: Each of Compound 1, Compound 2, and Compound 3 was formulated by adding the compound (dry) to 20% Trappsol® (hydroxypropyl Beta cyclodextrin; CDT, Inc.) (aq) pH 5.0 and vortexing until a homogeneous suspension (PO) or solution (IV) was achieved.
For oral dosing, rats received a single oral dose following an overnight fast. Blood was drawn from the lateral tail vein while the animal was anesthetized with 3% isoflurane balanced with O2 (0.2 mL/timepoint) into NaEDTA tubes (1.5% v/v) at the following time points: 5, 15, and 30 minutes, and 1, 2, 4, 8, 24 and 26 hours, and mixed thoroughly. Following the 24 hour blood collection, animals were redosed orally, and plasma and brain were collected 2 hours post dose for compound analysis. Brains were perefused with saline before removal, weighed and flash frozen in liquid nitrogen until analysis by LCMS/MS. Plasma was separated by centrifugation at 14,000 rpm for 10 minutes and the plasma samples were transferred to 96 well plate tubes with rubber caps and stored at −20±5° C. until analyzed.
A single 12-point calibration curve was prepared by first serially diluting (3-fold) a 40-μg/mL stock solution of Compound 1, Compound 2, and Compound 3 in DMSO to provide standard solutions. Plasma (20 μL) was then added to the extraction plate, and 2.5 μL of each standard solution was added to the naïve plasma. A stock solution of an internal standard (10.0 μL of 2.5 μg/mL in acetonitrile) subsequently was added to each standard and sample solution. Proteinaceous material was precipitated from 20 μL of plasma with the addition of 317.5 μL of acetonitrile for a total volume of 350 μL. Samples were vortex-mixed for 5 minutes and spun in an Allegra X-12R centrifuge (Beckman Coulter, Fullerton, Calif.) for 15 minutes at approximately 1,500×g at 4° C. A 100-μL aliquot of each supernatant was transferred via a 550 μL Personal Pipettor (Apricot Designs, Monrovia, Calif.) to 96-well plates and diluted 1:1 with HPLC grade water. The resulting plates were sealed with plate mats and the amount of Compound 1n the plasma was analyzed by LC-MS/MS.
The LC-MS/MS system was comprised of an HTC-PAL autosampler (Leap Technologies, Inc., Carrboro, N.C.), an HP1100 HPLC (Agilent Technologies Inc., Santa Clara, Calif.), and an API4000 triple quadrupole mass spectrometer (Applied Biosystems, Foster City, Calif.). Chromatographic retention of the analyte and internal standard was achieved using a Phenomenex® Synergi 4μ Hydro-RP 80A column (2.1×30 mm, 4 μm particle size; Phenomenex, Torrance, Calif.) in conjunction with gradient conditions using mobile phases A (10 mM ammonium acetate in aqueous 0.1% formic acid and 1% isopropyl alcohol) and B (10 mM ammonium acetate in 89.9% acetonitrile, 10% methanol, 0.1% formic acid). The total run time, including re-equilibration time, for a single injection was 3.5 minutes and the flow rate was 0.8 mL/minute. Solvent B was increased from 5 to 95% in 1.0 minute, held at 95% for 1.0 minute, and then decreased to 5% in 0.1 minute.
A single 12-point calibration curve was prepared by first serially diluting (3-fold) a 40-μg/mL stock solution of each of Compound 1, Compound 2, and Compound 3 in DMSO. Brain homogenate was prepared by adding 5.0 mL of water to conical 50 mL tubes containing brains. The contents of the tubes were homogenized using an Omni-Prep Multi Sample Homogenizer (Kennesaw, Ga.) at 22,000 RPM for 180 seconds. The homogenate (100 μL) was added to the extraction plate, and 2.5 μL each standard solution was added to the naïve brain homogenate. A stock solution of an internal standard (10.0 μL of 2.5 μg/mL in acetonitrile) subsequently was added to each standard and sample solution. Proteinaceous material was precipitated from 100 μL of […] with the addition of 237.5 μL of acetonitrile for a total volume of 350 μL. […]

For `COCCN1C[C@@H](NC(=O)Nc2c(C)c(-c3cnn(C)c3)nn2-c2ccccc2)[C@H](c2ccc(F)cc2)C1` [Compound 3, 1-(1′,4-dimethyl-1-phenyl-1H,1′H-[3,4′-bipyrazol]-5-yl)-3-((3S,4R)-4-(4-fluorophenyl)-1-(2-methoxyethyl)pyrrolidin-3-yl)urea], the Trough concentration came to 0.00044 µg/mL, the AUC was 1060 ng·h/mL and the highest concentration (Cmax) was 498 ng/mL.

With `COCCN1C[C@@H](NC(=O)Nc2c(C)c(-c3cnc(C)nc3)nn2-c2ccccc2)[C@H](c2cccc(F)c2)C1` [Compound 1, 1-((3S,4R)-4-(3-fluorophenyl)-1-(2-methoxyethyl)pyrrolidin-3-yl)-3-(4-methyl-3-(2-methylpyrimidin-5-yl)-1-phenyl-1H-pyrazol-5-yl)urea], the “Plasma:Brain ratio” value is reported as 21, the Trough concentration stood at 0.00134 µg/mL, the AUC came out at 2570 ng·h/mL and the Cmax was determined as 1060 ng/mL.

For `COCCN1C[C@@H](NC(=O)Nc2c(C)c(-c3cnc(C)nc3)nn2-c2ccccc2)[C@H](c2ccc(F)c(F)c2)C1` [Compound 2, 1-((3S,4R)-4-(3,4-difluorophenyl)-1-(2-methoxyethyl)pyrrolidin-3-yl)-3-(4-methyl-3-(2-methylpyrimidin-5-yl)-1-phenyl-1H-pyrazol-5-yl)urea], the “Plasma:Brain ratio” value is listed as 11, the Trough concentration is 0.000446 µg/mL, the AUC is 925 ng·h/mL and the Cmax came to 420 ng/mL.
